This experiment in a line: Radiation-induced photodegradation in […] X174 Rf1 DNA assessed as conversion of type 2 DNA at 1 uM after 3 hrs.

For `O=C(O)CCOCCOCCOCCOCCOCCOCCOCCOCCOCCOCCOCCOCCOCCC(=O)OCc1ccc(C#Cc2ccccc2C#Cc2ccccc2)cc1`, the Activity turned out to be 24%.
